Measured values: patent US10669258B2, “3-sulfonyl-5-aminopyridine-2,4-diol APJ agonists” (BRISTOL-MYERS SQUIBB COMPANY, priority 2016, dated 2020)
Where two headings read alike, the source gives them in different places.

Biological target: T1, human APJ receptor (Homo sapiens, UniProt P35414)
T1 construct: expressed in transfected cells; host or cells: HEK293
T1 sequence (P35414 1-380): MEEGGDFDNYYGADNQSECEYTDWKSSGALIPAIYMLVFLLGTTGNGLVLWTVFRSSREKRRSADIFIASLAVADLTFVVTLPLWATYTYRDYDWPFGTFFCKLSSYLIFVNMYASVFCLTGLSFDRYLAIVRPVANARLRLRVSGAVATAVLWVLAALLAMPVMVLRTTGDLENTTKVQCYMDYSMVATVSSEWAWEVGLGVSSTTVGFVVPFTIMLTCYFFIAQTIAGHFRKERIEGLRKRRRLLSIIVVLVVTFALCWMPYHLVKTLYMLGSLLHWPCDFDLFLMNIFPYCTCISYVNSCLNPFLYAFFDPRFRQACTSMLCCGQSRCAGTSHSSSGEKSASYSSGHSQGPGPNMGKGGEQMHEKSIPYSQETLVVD
Test: Intracellular cAMP accumulation assay (APJ hcAMP, HTRF)
Assay type: cell-based
Conditions: HEK293 cells stably expressing human APJ receptor, inhibition of forskolin-mediated cAMP production
Method: Intracellular cAMP Accumulation Assay
HEK293 cells stably expressing human APJ receptor were used to assess the activity of compounds. Cultured cells were detached and resuspended in the cAMP Homogeneous Time-Resolved Fluorescence (HTRF) assay buffer (Cisbio cat; #62AM4PEJ). The assay was performed in 384-well assay plates (Perkin-Elmer; cat #6008289) according to assay protocol provided by the manufacturer. Serial dilutions of a compound together with assay buffer containing […] IBMX and 2 μM forskolin were added to each well containing 5,000 cells and incubated for 30 minutes at room temperature. Subsequently, cAMP D2 reagent was added in the lysis buffer followed by the EuK antibody (Cisbio; cat #62AM4PEJ) and incubated for 60 min. The fluorescence emission ratio was measured using fluorometer. The intracellular cAMP concentrations (compound-stimulated inhibition of forskolin-mediated cAMP production) were calculated by extrapolation from a standard curve using known cAMP concentrations. The EC50 values were obtained by fitting the data to a sigmoidal concentration-response curve with variable slope. The maximal achievable inhibition of forskolin-induced cAMP levels (Ymax) for each compound was expressed as relative percentage of inhibition attained using pyroglutamated apelin-13 ((Pyr1)apelin-13) peptide, which was set to 100%.
The examples disclosed below were tested in the APJ in vitro assays described above and were found having human APJ cyclic AMP (hcAMP) activity. The EC50 value of each compound is presented at the end of the example description.
The biological activity of the exemplified compounds of this invention determined by the assay described above is shown at the end of each example.

[1] = Table 1, read-out: hAPJ cAMP EC50 Potency range

Compound	EC50 [1]	other results
CCN(c1ccccc1)c1c(CC2CC2)nc(O)c(S(=O)(=O)c2ccc(-c3ccccc3C(N)=O)cc2)c1O [Example 147, 4′-((6-(cyclopropylmethyl)-5-(ethyl(phenyl)amino)-2,4-dihydroxypyridin-3-yl)sulfonyl)-[1,1′-biphenyl]-2-carboxamide]	0.01 to 10 nM	–
CCN(c1ccccc1)c1c(-c2ccn(C)n2)nc(O)c(S(=O)(=O)c2ccc(-c3ccc(F)nc3C)cc2)c1O [Example 059, 5-(ethyl(phenyl)amino)-3-((4-(6-fluoro-2-methylpyridin-3-yl)phenyl)sulfonyl)-6-(1-methyl-1H-pyrazol-3-yl)pyridine-2,4-diol]	0.01 to 10 nM	–
CCCCc1nc(O)c(S(=O)(=O)c2ccc(C3CC3)cc2)c(O)c1N(CC)c1ccccc1 [Example 004, 6-butyl-3-((4-cyclopropylphenyl)sulfonyl)-5-(ethyl(phenyl)amino)pyridine-2,4-diol]	–	EC50 (read-out: Human APJ cAMP Potency range): 0.01 to 10 nM
CCCCc1nc(O)c(C(=O)N2CCC(c3ncc(Cl)cc3F)C2)c(O)c1N(CC)c1ccccc1 (stereo not shown) [Example 072, (6-butyl-5-(ethyl(phenyl)amino)-2,4-dihydroxypyridin-3-yl)(3-(5-chloro-3-fluoropyridin-2-yl)pyrrolidin-1-yl)methanone]	–	EC50 (read-out: hAPJ cAMP EC50 Potency range, Table 1): 0.01 to 10 nM
CCN(c1ccccc1)c1c(CC2CC2)nc(O)c(S(=O)(=O)c2ccc(-c3ccc(F)nc3C)cc2)c1O [Example 051, 6-(cyclopropylmethyl)-5-(ethyl(phenyl)amino)-3-((4-(6-fluoro-2-methylpyridin-3-yl)phenyl)sulfonyl)pyridine-2,4-diol]	0.01 to 10 nM	–
CCCCc1nc(O)c(S(=O)(=O)c2ccc(-c3ccc(F)nc3C)cc2)c(O)c1N1CCCCc2ccccc21 [Example 177, 6-butyl-3-((4-(6-fluoro-2-methylpyridin-3-yl)phenyl)sulfonyl)-5-(2,3,4,5-tetrahydro-1H-benzo[b]azepin-1-yl)pyridine-2,4-diol]	10 to 100 nM	–
CCCCc1nc(O)c(S(=O)(=O)c2ccc(-c3ccnc(F)c3C)cc2)c(O)c1N(C)c1ccc(C)cc1 [Example 092, 6-butyl-3-((4-(2-fluoro-3-methylpyridin-4-yl)phenyl)sulfonyl)-5-(methyl(p-tolyl)amino)pyridine-2,4-diol]	0.01 to 10 nM	–
CCCCc1nc(O)c(S(=O)(=O)c2ccc(-c3ccnc(F)c3C)cc2)c(O)c1N1c2ccccc2CCC1C (stereo not shown) [167-I, 6-butyl-3-((4-(2-fluoro-3-methylpyridin-4-yl)phenyl)sulfonyl)-5-(2-methyl-3,4-dihydroquinolin-1(2H)-yl)pyridine-2,4-diol]	0.01 to 10 nM	–
CCCCc1nc(O)c(S(=O)(=O)c2ccc(Br)cc2)c(O)c1N(C)c1cccc(C)c1 [Example 093, 3-((4-bromophenyl)sulfonyl)-6-butyl-5-(methyl(m-tolyl)amino)pyridine-2,4-diol]	10 to 100 nM	–
CCCCc1nc(O)c(S(=O)(=O)c2ccc(-c3cccnc3C)cc2)c(O)c1N(C)c1cccc(C#N)c1 [Example 119, 3-((2-butyl-4,6-dihydroxy-5-((4-(2-methylpyridin-3-yl)phenyl)sulfonyl)pyridin-3-yl)(methyl)amino)benzonitrile]	0.01 to 10 nM	–
CCCCc1nc(O)c(S(=O)(=O)c2ccc(Br)cc2)c(O)c1N(CC)c1cc(C)cc(C)c1 [Example 134, 3-((4-bromophenyl)sulfonyl)-6-butyl-5-((3,5-dimethylphenyl)(ethyl)amino)pyridine-2,4-diol]	10 to 100 nM	–
CCCCc1nc(O)c(C(=O)N2CC[C@H](c3ccccc3)C2)c(O)c1N(C)c1ccccc1 [Example 008, (R)-(6-butyl-2,4-dihydroxy-5-(methyl(phenyl)amino)pyridin-3-yl)(3-phenylpyrrolidin-1-yl)methanone]	–	EC50 (hAPJ cAMP EC50 Potency range, Table 1): 10 to 100 nM
CCCCc1nc(O)c(S(=O)(=O)c2ccc(-c3cccnc3C)cc2)c(O)c1N1CCCc2ccccc21 [Example 024, 6-butyl-5-(3,4-dihydroquinolin-1(2H)-yl)-3-((4-(2-methylpyridin-3-yl)phenyl)sulfonyl)pyridine-2,4-diol]	0.01 to 10 nM	–
CCCCc1nc(O)c(S(=O)(=O)c2ccc(-c3cccnc3C)cc2)c(O)c1N(C)c1cccc(F)c1 [Example 101, 6-butyl-5-((3-fluorophenyl)(methyl)amino)-3-((4-(2-methylpyridin-3-yl)phenyl)sulfonyl)pyridine-2,4-diol]	0.01 to 10 nM	–
CCCCc1nc(O)c(S(=O)(=O)c2ccc(-c3ccccc3C(N)=O)cc2)c(O)c1N(C)c1ccccc1 [Example 065, 4′-((6-butyl-2,4-dihydroxy-5-(methyl(phenyl)amino)pyridin-3-yl)sulfonyl)-[1,1′-biphenyl]-2-carboxamide]	0.01 to 10 nM	–
CCN(c1ccccc1)c1c(-c2ccn(C)n2)nc(O)c(C(=O)N2CCC(c3ccccc3F)C2)c1O (stereo not shown) [Example 205, (5-(ethyl(phenyl)amino)-2,4-dihydroxy-6-(1-methyl-1H-pyrazol-3-yl)pyridin-3-yl)(3-(2-fluorophenyl)pyrrolidin-1-yl)methanone]	–	EC50 (Table 2, read-out: hAPJ cAMP EC50 Potency range): 0.01 to 10 nM
CCCCc1nc(O)c(S(=O)(=O)c2ccc(-c3ccnc(F)c3C)cc2)c(O)c1N(C)c1ccccc1C [Example 193, 6-butyl-3-((4-(2-fluoro-3-methypyridin-4-yl)phenyl)sulfonyl)-5-(methyl(o-tolyl)amino)pyridine-2,4-diol]	0.01 to 10 nM	–
CCCCc1nc(O)c(S(=O)(=O)c2ccc(-c3ccccc3C(N)=O)cc2)c(O)c1N(CC)c1cc(C)cc(C)c1 [Example 143, 4′-((6-butyl-5-((3,5-dimethylphenyl)(ethyl)amino)-2,4-dihydroxypyridin-3-yl)sulfonyl)-[1,1′-biphenyl]-2-carboxamide]	0.01 to 10 nM	–
CCCCc1nc(O)c(S(=O)(=O)c2ccc(-c3ccccc3C(=O)NC)cc2)c(O)c1N(C)c1ccccc1C [Example 206, 4′-((6-butyl-2,4-dihydroxy-5-(methyl(o-tolyl)amino)pyridin-3-yl)sulfonyl)-N-methyl-[1,1′-biphenyl]-2-carboxamide]	0.01 to 10 nM	–
CCCCc1nc(O)c(S(=O)(=O)c2ccc(-c3ccccc3C(=O)N(C)C)cc2)c(O)c1N(C)c1cccc(C#N)c1 [Example 139, 4′-((6-butyl-5-((3-cyanophenyl)(methyl)amino)-2,4-dihydroxypyridin-3-yl)sulfonyl)-N,N-dimethyl-[1,1′-biphenyl]-2-carboxamide]	0.01 to 10 nM	–
CCCCc1nc(O)c(S(=O)(=O)c2ccc(-c3ccccc3C(=O)N(C)C)cc2)c(O)c1N(CC)c1cc(C)cc(C)c1 [Example 140, 4′-((6-butyl-5-((3,5-dimethylphenyl)(ethyl)amino)-2,4-dihydroxypyridin-3-yl)sulfonyl)-N,N-dimethyl-[1,1′-biphenyl]-2-carboxamide]	0.01 to 10 nM	–
CCCCc1nc(O)c(S(=O)(=O)c2ccc(-c3ccnc(F)c3C)cc2)c(O)c1N1CCCCc2ccccc21 [Example 180, 6-butyl-3-((4-(2-fluoro-3-methylpyridin-4-yl)phenyl)sulfonyl)-5-(2,3,4,5-tetrahydro-1H-benzo[b]azepin-1-yl)pyridine-2,4-diol]	0.01 to 10 nM	–
CCCCc1nc(O)c(C(=O)N2CC[C@@H](c3ccccc3)C2)c(O)c1N(CC)c1ccccc1 [Example 001, (S)-(6-butyl-5-(ethyl(phenyl)amino)-2,4-dihydroxypyridin-3-yl)(3-phenylpyrrolidin-1-yl)methanone]	–	EC50 (Human APJ cAMP Potency range): 10 to 100 nM
Cc1c(-c2ccc(S(=O)(=O)c3c(O)nc(-c4ccn(C)n4)c(N4CC(C)(C)c5ccccc54)c3O)cc2)ccnc1F [Example 160, 5-(3,3-dimethylindolin-1-yl)-3-((4-(2-fluoro-3-methylpyridin-4-yl)phenyl)sulfonyl)-6-(1-methyl-1H-pyrazol-3-yl)pyridine-2,4-diol]	10 to 100 nM	–
CCCCc1nc(O)c(S(=O)(=O)c2ccc(-c3ccnc(F)c3C)cc2)c(O)c1N(C)c1ccc(Cl)cc1 [Example 103, 6-butyl-5-((4-chlorophenyl)(methyl)amino)-3-((4-(2-fluoro-3-methylpyridin-4-yl)phenyl)sulfonyl)pyridine-2,4-diol]	0.01 to 10 nM	–
